# Laboratory results reported in ChEMBL document CHEMBL1124125, “6-(Alkylamino)-3-aryl-1,2,4-triazolo[3,4-a]phthalazines. A new class of benzodiazepine receptor ligands” (J Med Chem, 1988).
# Columns and labels:
# Mus musculus [1] = test: Inhibition of Anti-pentylenetetrazole-induced convulsions in mice following i.p. administration.; type: functional; details: ip
# [2] = molecular target: GABA-A receptor; anion channel; test: Inhibition of [3H]diazepam binding to GABA-A central benzodiazepine receptor of rat brain homogenate
# [3] = Lethal dose when given intraperitoneally in mice; type: toxicity, organism-based; details: mouse, in vivo, ip
# Mus musculus [4] = test: Dose that prevented tonic extensor seizures and death in 50% of the mice.(ip); type: functional
# Rattus norvegicus [5] = test: Minimal effective dose (MED, ip) that significantly increased the number of shocks (anticonflict); type: functional; details: read-out: MED
# [6] = molecular target: T1, GABA-A receptor; anion channel (Rattus norvegicus) (UniProt O09028+P15431+P18506+P18508+P19969+P20236+P23574+P23576+P28471+P28473+P30191+P62813+P63079+P63138+Q91ZM7+Q9ES14); test: GABA ratio (IC50/IC50 in the presence of 10e-4 GABA).; type: protein-complex assay
# Mus musculus [7] = test: Antagonism of Diazepam muscle relaxant effect by compound (60 mg/kg, ip) was measured as the ratio of fallen/treated mice.; type: functional
# Rattus norvegicus [8] = test: Activity was measured by rotarod test by peroral administration in rat; type: functional; details: po
# Rattus norvegicus [9] = test: Minimal effective dose (MED) that significantly increased the number of shocks.(ip); details: read-out: MED
# Mus musculus [10] = species on record: Mus musculus; test: Anticonvulsant activity when maximal electroshock is induced in mouse; type: functional
# Mus musculus [11] = test: Anticonvulsant activity when lethal dose of strychnine given subcutaneously in mouse; details: sc
# Mus musculus [12] = test: Activity was measured by rotarod test by intraperitoneal administration in mouse.; type: functional; details: ip
# Mus musculus [13] = test: Anticonvulsant activity when bicuculline given subcutaneously in mouse; type: functional; details: sc
# Mus musculus [14] = test: Antagonism of Diazepam muscle relaxant effect by compound (3 mg/kg, ip) was measured by the fallen/treated mice.; type: functional
# Rattus norvegicus [15] = test: Conditioned Avoidance response activity (CR2) at 10 mg/kg (i.p.) (No. of rats with blocked response/No. of treated rats); type: functional; details: route intraperitoneal
# Mus musculus [16] = test: Antagonism of Diazepam muscle relaxant effect by compound (30 mg/kg, ip) was measured as the ratio of fallen/treated mice.; type: functional
# Mus musculus [17] = test: Antagonism of Diazepam muscle relaxant effect by compound (10 mg/kg, ip) was measured as the ratio of fallen/treated mice.; type: functional
# [18] = molecular target: T1, GABA-A receptor; anion channel (Rattus norvegicus); test: Relative inhibition of [3H]diazepam binding to GABA-A receptor of rat forebrain in the presence and absence of GABA(10e-4M)
Structure (SMILES),ED50 (Mus musculus [1]),Ki [2],LD50 [3],ED50 (Mus musculus [4]),Ratio [6],further results
COCCN(CCOC)c1nn2c(-c3cccc(Cl)c3)nnc2c2ccccc12,≥ 100 mg/kg,307 nM,600 mg/kg,–,–,–
COc1ccc(-c2nnc3c4ccccc4c(N(C)CC(C)O)nn23)cc1 (stereo not given),–,17 nM,300 mg/kg,9.8 mg/kg,1.4,minimal effective dose (Rattus norvegicus [5]): 10 mg/kg
Cc1ccc(-c2nnc3c4ccccc4c(N4CCCC4)nn23)cc1C,–,1970 nM,300 mg/kg,> 50 mg/kg,–,–
Brc1ccccc1-c1nnc2c3ccccc3c(N3CCCC3)nn12,–,760 nM,600 mg/kg,> 100 mg/kg,–,–
COCCN(CCOC)c1nn2c(-c3ccc(O)cc3)nnc2c2ccccc12,–,4.1 nM,600 mg/kg,> 50 mg/kg,1,–
COc1ccc(-c2nnc3c4ccccc4c(N4CCCC4)nn23)cc1,–,3.9 nM,600 mg/kg,> 100 mg/kg,1.1,Fallen/treated (Mus musculus [7]): 5
c1ccc(-c2nnc3c4ccccc4c(N4CCOCC4)nn23)cc1,≥ 100 mg/kg,14 nM,300 mg/kg,–,0.95,–
O=C(O)c1ccc(-c2nnc3c4ccccc4c(N4CCCC4)nn23)cc1,–,> 3000 nM,400 mg/kg,> 75 mg/kg,–,–
NC(=O)c1ccc(-c2nnc3c4ccccc4c(N4CCCC4)nn23)cc1,≥ 50 mg/kg,113 nM,200 mg/kg,–,1.1,–
c1ccc(-c2ccc(-c3nnc4c5ccccc5c(N5CCCC5)nn34)cc2)cc1,–,> 3000 nM,400 mg/kg,> 75 mg/kg,–,–
c1ccc(-c2nnc3c4ccccc4c(N4CCCCC4)nn23)cc1,≥ 100 mg/kg,16 nM,600 mg/kg,–,1,–
CC(C)(C)Nc1nn2c(-c3ccccc3)nnc2c2ccccc12,≥ 50 mg/kg,565 nM,300 mg/kg,–,–,–
COCCN(CCOC)c1nn2c(-c3ccc(C)cc3)nnc2c2ccccc12,20.4 mg/kg,44 nM,400 mg/kg,–,1.9,minimal effective dose (Rattus norvegicus [5]): 10 mg/kg
COCCNc1nn2c(-c3ccc(OC)cc3)nnc2c2ccccc12,≥ 50 mg/kg,5.4 nM,200 mg/kg,–,1.1,–
CCCCNc1nn2c(-c3ccccc3)nnc2c2ccccc12,≥ 100 mg/kg,243 nM,600 mg/kg,–,–,–
CCOc1c(Br)cc(Br)cc1-c1nnc2c3ccccc3c(N3CCCC3)nn12,–,> 3000 nM,600 mg/kg,> 100 mg/kg,–,–
Oc1ccc(-c2nnc3c4ccccc4c(N4CCCC4)nn23)cc1,–,11 nM,600 mg/kg,> 100 mg/kg,1.1,–
COCCN(CCOC)c1nn2c(-c3cccc(C)c3)nnc2c2ccccc12,–,181 nM,300 mg/kg,> 100 mg/kg,–,–
COc1ccc(-c2nnc3c4ccccc4c(N4CCCC4)nn23)cc1OC,–,> 3000 nM,500 mg/kg,> 100 mg/kg,–,–
CN1C(=O)CN=C(c2ccccc2)c2cc(Cl)ccc21 [DIAZEPAM],–,–,–,–,–,ED50 (Rattus norvegicus [8]): 15 mg/kg; minimal effective dose (Rattus norvegicus [9]): 3 mg/kg; ED50 (Mus musculus [10]): 14.2 mg/kg; ED50 (Mus musculus [11]): 3 mg/kg; ED50 (Mus musculus [12]): 1 mg/kg; ED50 (Mus musculus [13]): 1.4 mg/kg; Fallen/treated (Mus musculus [14]): 8; CR2 (Rattus norvegicus [15]): 5 block/treat; minimal effective dose (Rattus norvegicus [5]): 0.25 mg/kg
COc1cc(-c2nnc3c4ccccc4c(N4CCCC4)nn23)cc(Br)c1OC,–,> 3000 nM,600 mg/kg,> 100 mg/kg,–,–
COCCN(CCOC)c1nn2c(-c3ccc(Cl)cc3)nnc2c2ccccc12,–,17 nM,600 mg/kg,60.1 mg/kg,1.3,–
CN(C)c1nn2c(-c3ccccc3)nnc2c2ccccc12,–,20.8 nM,400 mg/kg,> 75 mg/kg,–,Fallen/treated (Mus musculus [16]): 2; Fallen/treated (Mus musculus [17]): 5; Ratio [18]: 1.1
CNc1nn2c(-c3ccccc3)nnc2c2ccccc12,–,46.3 nM,300 mg/kg,> 60 mg/kg,–,Ratio [18]: 1
